Experimental data: publication PMC6857076 (Pharmacology Research & Perspectives, 2019)
Read-outs that look alike come from different tables or passages of the source.

Columns and labels:
[1] = tested on: IL-13 cytokine receptor (JAK1/JAK2, JAK1/TYK2); test: Human whole blood, IL-13-induced pSTAT6, CD19+ cells; assay type: cell-based
Protocol: Blood was warmed to 37°C prior to use.
(§1) Anti‐cell surface antibodies were added 15 minutes prior to cytokine stimulation; anti‐CD14‐Pacific Blue (0.5 µL/well) to GM‐CSF, IFNγ, and TPO‐treated samples; anti‐CD3‐BV650 (0.5 µL/well) plus anti‐CD14‐Pacific Blue (0.5 µL/well) to IL‐6‐treated samples; and anti‐CD19‐BV421 (0.5 µL/well) plus anti‐CD14‐AF488 (0.5 µL/well) to IL‐13‐treated samples.
(§2) The lymphocyte population was gated for pSTAT histogram analysis for IFNα‐, IL‐2‐, IL‐3‐, IL‐4‐, IL‐7‐, IL‐10‐, IL‐12‐, IL‐15‐, IL‐21‐, IL‐23‐, and IL‐27‐treated samples; granulocyte population for G‐CSF‐treated samples; CD14^+ cells for GM‐CSF‐, IFNγ‐, and TPO‐treated samples; CD3^+ cells and CD14^+ cells for IL‐6‐treated samples; CD14^+ cells and CD19^+ cells for IL‐13‐treated samples; all events (entire populations) for EPO‐treated cells. Background fluorescence was defined using unstimulated cells and a gate was placed at the foot of the peak to include ~0.5% gated population.
(§3) Histogram statistical analysis was performed using FACSDiva version 8.0.1 (BD Biosciences). Relative fluorescence unit (RFU), which measures the level of pSTAT, was calculated by multiplying the percent positive population and its mean fluorescence. Data from 11 compound concentrations (singlicate at each concentration) were normalized as a percentage of control, as shown in Equation 1:(1) %ofcontrol=100×A−B/C−B
(§4) A, RFU from wells containing compound and cytokine; B, RFU from wells without cytokine (minimum fluorescence); C, RFU from wells containing only cytokine (maximum fluorescence).
(§5) Inhibition curves and IC50 values were determined using Prism software (Version 7, GraphPad).

[2] = tested on: TPO cytokine receptor (JAK2/JAK2); test: Human whole blood, TPO-induced pSTAT5, CD14+ cells; assay type: cell-based
Protocol: Blood was warmed to 37°C prior to use.
(§6) Then, 5 µL of PBS or cytokine was added to each well (5 µL/well; final, 10 U/mL EPO, 100 ng/mL G‐CSF, 10 ng/mL GM‐CSF, 5000 U/mL IFNα, 100 ng/mL IFNγ, 50 ng/mL IL‐2, 50 ng/mL IL‐3, 5 ng/mL IL‐4, 50 ng/mL IL‐6, 30 ng/mL IL‐7, 30 ng/mL IL‐10, 30 ng/mL IL‐12, 30 ng/mL IL‐13, 30 ng/mL IL‐15, 50 ng/mL IL‐21, 25 ng/mL IL‐23, 1000 ng/mL IL‐27) and incubated for 15 minutes. Anti‐cell surface antibodies were added 15 minutes prior to cytokine stimulation; anti‐CD14‐Pacific Blue (0.5 µL/well) to GM‐CSF, IFNγ, and TPO‐treated samples; anti‐CD3‐BV650 (0.5 µL/well) plus anti‐CD14‐Pacific Blue (0.5 µL/well) to IL‐6‐treated samples; and anti‐CD19‐BV421 (0.5 µL/well) plus anti‐CD14‐AF488 (0.5 µL/well) to IL‐13‐treated samples.
(§7) One more wash was done with staining buffer and all samples were finally suspended in 150 µL/well of the desired anti‐pSTAT antibodies at 1:150 dilution in staining buffer; anti‐pSTAT1‐AF647 in IFNγ‐treated samples; anti‐pSTAT1‐AF488 and anti‐pSTAT3‐AF647 in IFNα‐, IL‐6‐, and IL‐27‐treated samples; anti‐pSTAT3‐AF647 in G‐CSF‐, IL‐10‐, IL‐21‐, and IL‐23‐treated samples; anti‐pSTAT4‐AF647 in IL‐12‐treated samples; anti‐pSTAT5‐AF647 in EPO‐, GM‐CSF‐, IL‐2‐, IL‐3‐, IL‐7‐, IL‐15‐, and TPO‐treated samples; anti‐pSTAT5‐AF488 and anti‐pSTAT6‐AF647 in IL‐4‐treated samples; and anti‐pSTAT6‐AF647 in IL‐13‐treated samples.
as §2, §3, §4, §5

[3] = tested on: IL-10 cytokine receptor (JAK1/TYK2); test: Human whole blood, IL-10-induced pSTAT3, lymphocytes; assay type: cell-based; conditions: Lymphocyte
Protocol: Blood was warmed to 37°C prior to use.
as §6, §7, §2, §3, §4, §5

[4] = tested on: IL-4 cytokine receptor (JAK1/JAK3); test: Human whole blood, IL-4-induced pSTAT6, lymphocytes; assay type: cell-based; conditions: Lymphocyte
Protocol: Blood was warmed to 37°C prior to use.
as §6, §7, §2, §3, §4, §5

[5] = tested on: IL-12 cytokine receptor (JAK2/TYK2); test: Human whole blood, IL-12-induced pSTAT4, lymphocytes; assay type: cell-based; conditions: for IC50: Homo sapiens, Lymphocyte
Protocol: Blood was warmed to 37°C prior to use.
as §6, §7, §2, §3, §4, §5

[6] = tested on: IL-6 cytokine receptor (JAK1/JAK2, JAK1/TYK2); test: Human whole blood, IL-6-induced pSTAT1, CD3+ cells; assay type: cell-based; conditions: for IC50: Homo sapiens
Protocol: Blood was warmed to 37°C prior to use.
as §6, §7, §2, §3, §4, §5

[7] = tested on: IL-6 cytokine receptor (JAK1/JAK2, JAK1/TYK2); test: Human whole blood, IL-6-induced pSTAT3, CD3+ cells; assay type: cell-based
Protocol: Blood was warmed to 37°C prior to use.
as §1, §2, §3, §4, §5

[8] = tested on: GM-CSF cytokine receptor (JAK2/JAK2); test: Human whole blood, GM-CSF-induced pSTAT5, CD14+ cells; assay type: cell-based
Protocol: Blood was warmed to 37°C prior to use.
as §6, §7, §2, §3, §4, §5

[9] = tested on: IL-21 cytokine receptor (JAK1/JAK3); test: Human whole blood, IL-21-induced pSTAT3, lymphocytes; assay type: cell-based; conditions: Lymphocyte
Protocol: Blood was warmed to 37°C prior to use.
as §6, §7, §2, §3, §4, §5

[10] = human; filgotinib 200 mg QD; cited from earlier work
[11] = tested on: IL-13 cytokine receptor (JAK1/JAK2, JAK1/TYK2); test: Human whole blood, IL-13-induced pSTAT6, CD14+ cells; assay type: cell-based
Protocol: Blood was warmed to 37°C prior to use.
as §1, §2, §3, §4, §5

[12] = tested on: IL-3 cytokine receptor (JAK2/JAK2); test: Human whole blood, IL-3-induced pSTAT5, lymphocytes; assay type: cell-based
Protocol: Blood was warmed to 37°C prior to use.
as §6, §7, §2, §3, §4, §5

[13] = phase 3 RA studies; cited from earlier work
[14] = tested on: IFNα cytokine receptor (JAK1/TYK2); test: Human whole blood, IFNα-induced pSTAT1, lymphocytes; assay type: cell-based; conditions: for IC50: Homo sapiens, Lymphocyte
Protocol: Blood was warmed to 37°C prior to use.
as §6, §7, §2, §3, §4, §5

[15] = tested on: IL-27 cytokine receptor (JAK1/JAK2, JAK1/TYK2); test: Human whole blood, IL-27-induced pSTAT3, lymphocytes; assay type: cell-based; conditions: Lymphocyte
Protocol: Blood was warmed to 37°C prior to use.
as §6, §7, §2, §3, §4, §5

[16] = tested on: IFNγ cytokine receptor (JAK1/JAK2); test: Human whole blood, IFNγ-induced pSTAT1, CD14+ cells; assay type: cell-based; conditions: for IC50: Homo sapiens
Protocol: Blood was warmed to 37°C prior to use.
as §6, §7, §2, §3, §4, §5

[17] = tested on: IFNα cytokine receptor (JAK1/TYK2); test: Human whole blood, IFNα-induced pSTAT3, lymphocytes; assay type: cell-based; conditions: Lymphocyte
Protocol: Blood was warmed to 37°C prior to use.
as §6, §7, §2, §3, §4, §5

[18] = tested on: IL-6 cytokine receptor (JAK1/JAK2, JAK1/TYK2); test: Human whole blood, IL-6-induced pSTAT1, CD14+ cells; assay type: cell-based
Protocol: Blood was warmed to 37°C prior to use.
as §1, §2, §3, §4, §5

[19] = unbound, Cav × fu; filgotinib 200 mg QD
in vitro = conditions: both, human, pooled human plasma
CRP = conditions: RA; filgotinib 200 mg QD; cited from earlier work
[20] = tested on: EPO cytokine receptor (JAK2/JAK2); test: Human whole blood spiked with CD34+-derived erythroid progenitor cells, EPO-induced pSTAT5; assay type: cell-based; conditions: for IC50: Erythroid progenitor cell, human whole blood
Protocol: CD34^+ cells were then harvested, washed once with Dulbecco's (D)‐PBS, and suspended at 0.5 x 10^6 cells/mL in human whole blood to be used in the EPO stimulation assay.
Blood was warmed to 37°C prior to use.
Background fluorescence was defined using unstimulated cells and a gate was placed at the foot of the peak to include ~0.5% gated population.
as §3, §4, §5

[21] = tested on: IL-27 cytokine receptor (JAK1/JAK2, JAK1/TYK2); test: Human whole blood, IL-27-induced pSTAT1, lymphocytes; assay type: cell-based; conditions: Lymphocyte
Protocol: Blood was warmed to 37°C prior to use.
as §1, §2, §3, §4, §5

[22] = tested on: IL-2 cytokine receptor (JAK1/JAK3); test: Human whole blood, IL-2-induced pSTAT5, lymphocytes; assay type: cell-based; conditions: Lymphocyte
Protocol: Blood was warmed to 37°C prior to use.
as §6, §7, §2, §3, §4, §5

[23] = tested on: IL-15 cytokine receptor (JAK1/JAK3); test: Human whole blood, IL-15-induced pSTAT5, lymphocytes; assay type: cell-based; conditions: for IC50: Homo sapiens, Lymphocyte
Protocol: Blood was warmed to 37°C prior to use.
as §6, §7, §2, §3, §4, §5

[24] = tested on: IL-7 cytokine receptor (JAK1/JAK3); test: Human whole blood, IL-7-induced pSTAT5, lymphocytes; assay type: cell-based; conditions: Lymphocyte
Protocol: Blood was warmed to 37°C prior to use.
as §6, §7, §2, §3, §4, §5

## O=C(Nc1nc2cccc(-c3ccc(CN4CCS(=O)(=O)CC4)cc3)n2n1)C1CC1 [Filgotinib]
[1]; read-out: IC50, IL-13, pSTAT6, CD19+ cells
  IC50: 2120 nM
[1]; read-out: IC50,u, IL-13, pSTAT6, CD19+ cells
  IC50: 853 nM
[2]; Homo sapiens, read-out: IC50, TPO, pSTAT5
  IC50: > 17600 nM
[2]; human whole blood, four donors, mean (SD), CD14+ cells, JAK2/JAK2
  IC50, TPO, pSTAT5: not measurable
[3]; read-out: IC50, IL-10, pSTAT3
  IC50: 2550 nM
[3]; read-out: IC50,u, IL-10, pSTAT3
  IC50: 1020 nM
[4]; read-out: IC50, IL-4, pSTAT6
  IC50: 3620 nM
[4]; read-out: IC50,u, IL-4, pSTAT6
  IC50: 1460 nM
[5]
  LogIC50, IL-12 induced pSTAT4, single experiment: -5.125 log[M]
[5]; read-out: IC50, IL-12, pSTAT4
  IC50: 8030 nM
[5]; read-out: IC50, IL-12 induced pSTAT4, single experiment
  IC50: 7510 nM
[5]; read-out: IC50,u, IL-12, pSTAT4
  IC50: 3220 nM
[6]
  LogIC50, IL-6 induced pSTAT1 (CD3+ cells), single experiment: -6.12 log[M]
[6]; read-out: IC50, IL-6, pSTAT1, CD3+ cells
  IC50: 671 nM
[6]; read-out: IC50, IL-6 induced pSTAT1 (CD3+ cells), single experiment
  IC50: 759 nM
[6]; read-out: IC50,u, IL-6, pSTAT1, CD3+ cells
  IC50: 270 nM
[7]; read-out: IC50, IL-6, pSTAT3, CD3+ cells
  IC50: 4940 nM
[7]; read-out: IC50,u, IL-6, pSTAT3, CD3+ cells
  IC50: 1980 nM
[8]; Homo sapiens, read-out: IC50, GM-CSF, pSTAT5
  IC50: > 20000 nM
[8]; human whole blood, four donors, mean (SD), CD14+ cells, JAK2/JAK2, GM-CSF 10 ng/mL
  IC50, GM-CSF, pSTAT5: not measurable
[9]; read-out: IC50, IL-21, pSTAT3
  IC50: 3980 nM
[9]; read-out: IC50,u, IL-21, pSTAT3
  IC50: 1600 nM
[10]
  Cav: 474 nM
[11]; read-out: IC50, IL-13, pSTAT6, CD14+ cells
  IC50: 5140 nM
[11]; read-out: IC50,u, IL-13, pSTAT6, CD14+ cells
  IC50: 2060 nM
[12]; Homo sapiens, Lymphocyte, read-out: IC50, IL-3, pSTAT5
  IC50: > 20000 nM
[12]; human whole blood, four donors, mean (SD), lymphocytes, JAK2/JAK2, IL-3 50 ng/mL
  IC50, IL-3, pSTAT5: not measurable
[13]
  herpes zoster occurrence: reported
[14]; Figure S1B, Donor 256, Exp 1
  LogIC50, IFNα induced pSTAT1, single experiment: -5.931 log[M]
[14]; read-out: IC50, IFNα induced pSTAT1, single experiment
  IC50: 1170 nM
[14]; read-out: IC50, IFNα, pSTAT1
  IC50: 1320 nM
[14]; read-out: IC50,u, IFNα, pSTAT1
  IC50: 531 nM
[15]; read-out: IC50, IL-27, pSTAT3
  IC50: 1160 nM
[15]; read-out: IC50,u, IL-27, pSTAT3
  IC50: 468 nM
[16]
  LogIC50, IFNγ induced pSTAT1, single experiment: -5.17 log[M]
[16]; read-out: IC50, IFNγ induced pSTAT1, single experiment
  IC50: 6760 nM
[16]; read-out: IC50, IFNγ, pSTAT1
  IC50: 6950 nM
[16]; read-out: IC50,u, IFNγ, pSTAT1
  IC50: 2790 nM
[17]; read-out: IC50, IFNα, pSTAT3
  IC50: 1060 nM
[17]; read-out: IC50,u, IFNα, pSTAT3
  IC50: 425 nM
[18]; read-out: IC50, IL-6, pSTAT1, CD14+ cells
  IC50: 810 nM
[18]; read-out: IC50,u, IL-6, pSTAT1, CD14+ cells
  IC50: 325 nM
[19]
  Cav,u: 232.0 nM
In vitro
  fraction unbound at 6 h, 1 μmol/L: 0.49
CRP
  reduction of CRP levels from baseline to week 12: -14.9 mg/L
[20]; Figure S1F, Donor 573, Exp 1, one of four experiments, read-out: IC50, EPO induced pSTAT5, single experiment
  IC50: 7580 nM
[20]; four donors, mean (SD), erythroid progenitor cells, JAK2/JAK2, EPO 10 U/mL, read-out: IC50, EPO, pSTAT5
  IC50: 9900 nM
[20]; unbound (IC50/blood:plasma ratio × fu), erythroid progenitor cells, JAK2/JAK2, read-out: IC50,u, EPO, pSTAT5
  IC50: 3970 nM
[20]; Figure S1F, Donor 573, Exp 1
  LogIC50, EPO induced pSTAT5, single experiment: -5.121 log[M]
[21]; read-out: IC50, IL-27, pSTAT1
  IC50: 2110 nM
[21]; read-out: IC50,u, IL-27, pSTAT1
  IC50: 848 nM
[22]; read-out: IC50, IL-2, pSTAT5
  IC50: 2660 nM
[22]; read-out: IC50,u, IL-2, pSTAT5
  IC50: 1070 nM
[23]
  LogIC50, IL-15 induced pSTAT5, single experiment: -5.526 log[M]
[23]; read-out: IC50, IL-15, pSTAT5
  IC50: 3380 nM
[23]; read-out: IC50, IL-15 induced pSTAT5, single experiment
  IC50: 2980 nM
[23]; read-out: IC50,u, IL-15, pSTAT5
  IC50: 1360 nM
[24]; read-out: IC50, IL-7, pSTAT5
  IC50: 3620 nM
[24]; read-out: IC50,u, IL-7, pSTAT5
  IC50: 1460 nM
